Data reported in patent US9018229B2, “Quinolone compound and pharmaceutical composition” (Otsuka Pharmaceutical Co., Ltd., priority 2008, dated 2015).
Where a name gives a salt, the structure may show the parent alone.

What was measured:
[1] = tested on: human neuroblastoma cell lines SH-SY5Y treated with 1-methyl-4-phenylpyridinium (MPP+); assay: Improvement of mitochondrial dysfunction in MPP+-treated SH-SY5Y cells (mitochondrial oxidation reduction activity, Alamar Blue); format: cell-based; conditions: 1.5 mM MPP+, relative to cells in DMSO alone = 100%, read-out: Fluorescence Intensity (%); for activity at 0.01 µg/mL: test compound 0.01 μg/ml; for activity at 0.03 µg/mL: test compound 0.03 μg/ml; for activity at 0.1 µg/mL: test compound 0.1 μg/ml; for activity at 0.3 µg/mL: test compound 0.3 μg/ml; for activity at 1 µg/mL: test compound 1 μg/ml
Experimental: Evaluation of the Improvement of Mitochondrial Dysfunction Using Human Neuroblastoma Cell Lines SH-SY5Y Treated with 1-methyl-4-phenylpyridinium (MPP^+)
In human neuroblastoma cell lines SH-SY5Y in which mitochondrial activity was injured by MPP^+ treatment (Bollimuntha S. et al., J Biol Chem, 280, 2132-2140 (2005) and Shang T. et al., J Biol Chem, 280, 34644-34653 (2005)), the improvement of mitochondrial dysfunction was evaluated on the basis of measurement values for mitochondrial oxidation reduction activity using Alamar Blue fluorescent dye after the compound addition (Nakai M. et al, Exp Neurol, 179, 103-110 (2003)).
The human neuroblastoma cell lines SH-SY5Y were cultured in Dulbecco's Modified Eagle's Medium containing 10% fetal bovine serum (DMEM containing 50 units/ml penicillin and 50 μg/ml streptomycin as antibiotics) at 37° C. in the presence of 5% carbon dioxide. Cells were scattered on a poly-D-lysine-coated 96-well black plate at a concentration of 3−6×10^4 cells/cm^2 (medium amount: 100 μl/well), and cultured in the above medium for two days. Further, the medium was changed to DMEM containing a 1% N2 supplement (N2-DMEM) or to a medium (100 μl/well) in which 1.5 mM MPP^+ was dissolved. The cells were cultured therein for 39 to 48 hours, and then subjected to a mitochondrial oxidation reduction activity measurement system. A sample compound that had been previously dissolved in dimethyl sulfoxide (DMSO) was diluted with N2-DMEM, and added in a volume of 10 μl/well 24 hours before the activity measurement (final compound concentration: 0.01 to 1 μg/ml).
After removal of the medium by suction, a balanced salt solution containing 10% Alamar Blue (154 mM sodium chloride, 5.6 mM potassium chloride, 2.3 mM calcium chloride, 1.0 mM magnesium chloride, 3.6 mM sodium bicarbonate, 5 mM glucose, 5 mM HEPES, pH 7.2) was added in a volume of 100 μl/well, and reacted in an incubator at 37° C. for 1 hour. The fluorescent intensity was detected using a fluorescence detector (a product of Hamamatsu Photonics K.K., excitation wavelength 530 nm, measurement wavelength 580 nm) to thereby measure the mitochondrial oxidation reduction activity.
The fluorescent intensity of the well of the cells cultured in a medium containing MPP^+ and in each of the sample compounds was relatively evaluated based on the 100% fluorescent intensity of the well of the cells cultured in a medium containing DMSO alone (final concentration: 0.1%).

Row | Structure (SMILES) | activity at 0.01 µg/mL [1] [%] | activity at 0.03 µg/mL [1] [%] | activity at 0.1 µg/mL [1] [%] | activity at 0.3 µg/mL [1] [%] | activity at 1 µg/mL [1] [%] | melting point [°C]
1 | CCCOc1ccc(F)c2c(=O)c(-c3ccc(OC)cc3)cn(COP(=O)(O)O)c12 [Example 212, [5-fluoro-3-(4-methoxyphenyl)-4-oxo-8-propoxy-4H-quinolin-1-ylmethyl]monophosphate disodium salt] | 46 | 62 | 63 | 70 | 72 | 
2 | CCCOc1ccc(F)c2c(=O)c(-c3ccc(OC)cc3)cn(CCC(=O)OCCN3CCN(C)CC3)c12.Cl.Cl |  |  |  |  |  | 150 to 152
3 | CCCOc1ccc(F)c2c(=O)c(-c3ccc(OC)cc3)cn(CC(=O)NC3CCNCC3)c12 |  |  |  |  |  | 226 to 228
4 | CCCOc1cc2ccccc2c2c(=O)c(-c3ccc(OC)cc3)c(C)[nH]c12 |  |  |  |  |  | 204 to 206
5 | CCCOc1ccc(F)c2c(=O)c(-c3ccc(OC)cc3)cn(CCN3CCOCC3)c12 |  |  |  |  |  | 206 to 208
6 | COc1ccc(-c2c[nH]c3c4c(cc(C)c3c2=O)CCO4)cc1 [Example 57, 7-(4-methoxyphenyl)-5-methyl-2,3-dihydro-9H-flo[3,2-h]quinolin-6-one] | 64 | 65 | 68 | 74 | 65 | 
7 | CCCOc1cc2ccccc2c2c(=O)c(-c3ccc(OC)cc3)c[nH]c12 |  |  |  |  |  | 172 to 174
8 | CCCOc1cc2ccccc2c2c(=O)c(-c3ccsc3)cn(C)c12 [Example 7, 4-methyl-5-propoxy-2-thiophen-3-yl-4H-benzo[f]quinolin-1-one] | 66 | 71 | 78 | 80 | 75 | 
9 | CCCOc1cc2c(c3c(=O)c(-c4ccc(OC)cc4)cn(COP(=O)(O)O)c13)OCCC2 [Example 36, [3-(4-methoxyphenyl)-4-oxo-10-propoxy-7,8-dihydro-4H,6H-5-oxa-1-aza-phenanthren-1-ylmethyl]monophosphate disodium salt] | 69 | 67 | 86 | 90 | 89 | 
10 | CCCOc1cc2c(c3c(=O)c(-c4ccc(OC)cc4)cn(CCCN4CCOCC4)c13)CCC2 |  |  |  |  |  | 135 to 137
11 | CCCOc1cc2cnccc2c2c(=O)c(-c3ccc(OC)cc3)cn(CC(=O)NCCN3CCOCC3)c12 [Example 69, 2-[9-(4-methoxyphenyl)-10-oxo-6-propoxy-10H-[3,7]phenanthrolin-7-yl]-N-(2-morpholin-4-ylethyl)acetamide] | 78 | 64 | 68 | 67 | 65 | 
12 | CCCOc1ccc(F)c2c(=O)c(-c3ccc(Cl)cc3Cl)cn(COP(=O)([O-])[O-])c12.[Na+].[Na+] |  |  |  |  |  | 208 to 210
13 | CCCOc1cc2ccccc2c2c(=O)c(-c3ccoc3)cn(C)c12 |  |  |  |  |  | 165 to 167
14 | COc1ccc(-c2c[nH]c3c(OCC(=O)NCCN4CCOCC4)ccc(F)c3c2=O)cc1 [Example 139, 2-[5-fluoro-3-(4-methoxyphenyl)-4-oxo-1,4-dihydro-quinolin-8-yloxy]-N-(2-morpholin-4-ylethyl)acetamide] | 53 | 58 | 57 | 60 | 55 | 
15 | CCCOc1ccc(F)c2c(=O)c(-c3ccc(OC)cc3)cn(CC(=O)NCCN3CCOCC3)c12 |  |  |  |  |  | 139 to 141
16 | CCCOc1ccc(F)c2c(=O)c(-c3ccc(OC)cc3)cn(CCS(=O)(=O)CCCN3CCN(C)CC3)c12.Cl.Cl |  |  |  |  |  | 72 to 74
17 | CCCOc1cc2ccccc2c2c(=O)c(-c3ccoc3)c[nH]c12 |  |  |  |  |  | 252 to 254
18 | CCCOc1cc2c(c3c(=O)c(-c4ccc(OC)cc4)c(C)[nH]c13)OCC2 [Example 48, 8-(4-methoxyphenyl)-7-methyl-5-propoxy-3,6-dihydro-2H-flo[2,3-f]quinolin-9-one] | 60 | 81 | 92 | 93 | 80 | 
19 | CCCOc1ccc(F)c2c(=O)c(-c3cnn(C)c3)cn(COP(=O)(O)O)c12 [Example 222, [5-fluoro-3-(1-methyl-1H-pyrazol-4-yl)-4-oxo-8-propoxy-4H-quinolin-1-ylmethyl]monophosphate disodium salt] | 59 | 64 | 66 | 62 | 73 | 
20 | CCCOc1cc2c(c3c(=O)c(-c4ccc(OC)cc4)cn(CC(=O)NCCN4CCOCC4)c13)OCCC2 |  |  |  |  |  | 201 to 203
21 | CCCOc1ccc(F)c2c(=O)c(-c3ccc(OC)cc3)c(C(=O)NCCN3CCOCC3)[nH]c12 [Example 171, 5-fluoro-3-(4-methoxyphenyl)-4-oxo-8-propoxy-1,4-dihydroquinoline-2-carboxy-[2-(morpholin-4-yl)ethyl]amide] | 61 | 61 | 65 | 67 | 68 | 
22 | CCCOc1ccc(F)c2c(=O)c(-c3ccc(OC)cc3)cn(CC(=O)N(C)CCN3CCOCC3)c12 |  |  |  |  |  | 218 to 220
23 | CCCOc1ccc(F)c2c(=O)c(-c3ccc(OC)cc3)c(CN3CCN(c4ccccn4)CC3)[nH]c12 |  |  |  |  |  | 211 to 212
24 | CCCOc1ccc(F)c2c(=O)c(-c3ccc(C(=O)N4CCC(N5CCOCC5)CC4)cc3)c[nH]c12 [Example 163, 5-fluoro-3-[4-(4-morpholin-4-yl-piperidine-1-carbonyl)phenyl]-8-propoxy-1H-quinolin-4-one] | 61 | 61 | 63 | 60 | 63 | 
25 | CCCOc1cc2c(c3c(=O)c(-c4ccsc4)c[nH]c13)CCC2 [Example 12, 5-propoxy-8-thiophen-3-yl-1,2,3,6-tetrahydro-6-aza-cyclopenta[a]naphthalen-9-one] | 80 | 74 | 83 | 82 | 68 | 
26 | CCCOc1ccc(F)c2c(=O)c(-c3ccc(OC)cc3)cn(COC(=O)c3ccc(OP(=O)([O-])[O-])cc3)c12.[Na+].[Na+] |  |  |  |  |  | 205 to 207
